Source: patent US12077501B2, “Compounds and compositions for intracellular delivery of agents” (ModernaTX, Inc., priority 2017, dated 2024)

How the values were obtained:
[1] = Particle size and polydispersity index of nanoparticle compositions (Zetasizer Nano ZS); type: physicochemical; settings: summary of Table 1
Experimental: A Zetasizer Nano ZS (Malvem Instruments Ltd, Malvem, Worcestershire, UK) can be used to determine the particle size, the polydispersity index (PDI) and the zeta potential of the nanoparticle compositions in 1×PBS in determining particle size and 15 mM PBS in determining zeta potential.

[2] = Encapsulation efficiency of RNA (QUANT-IT RIBOGREEN RNA assay); type: physicochemical; settings: summary of Table 1
Experimental: For nanoparticle compositions including an RNA, a QUANT-IT™ RIBOGREEN® RNA assay (Invitrogen Corporation Carlsbad, CA) can be used to evaluate the encapsulation of an RNA by the nanoparticle composition. The samples are diluted to a concentration of approximately 5 μg/mL in a TE buffer solution (10 mM Tris-HCl, 1 mM EDTA, pH 7.5). 50 μL of the diluted samples are transferred to a polystyrene 96 well plate and either 50 μL of TE buffer or 50 μL of a 2% Triton X-100 solution is added to the wells. The plate is incubated at a temperature of 37° C. for 15 minutes. The RIBOGREEN® reagent is diluted 1:100 in TE buffer, and 100 μL of this solution is added to each well. The fluorescence intensity can be measured using a fluorescence plate reader (Wallac Victor 1420 Multilablel Counter; Perkin Elmer, Waltham, MA) at an excitation wavelength of, for example, about 480 nm and an emission wavelength of, for example, about 520 nm. The fluorescence values of the reagent blank are subtracted from that of each of the samples and the percentage of free RNA is determined by dividing the fluorescence intensity of the intact sample (without addition of Triton X-100) by the fluorescence value of the disrupted sample (caused by the addition of Triton X-100).

[3] = pKa of nanoparticle compositions; type: physicochemical; settings: Table 1b
[4] = Lipid clearance: % dose remaining in liver of CD-1 mice; type: in vivo; settings: intravenous, 0.5 mg/kg, CD-1 mouse, Table 8a
Excerpt: In contrast, hEPO expression in rats induced by administration of a nanoparticle composition including a compound according to one of formulae (I), (Ia1)-(Ia6), (Ib), (II), (IIa), (III), and (IIIa) was substantially […] than that measured for MC3. […] Tables 7c and 7d show additional protein expressions and clearance data from compositions with various compounds disclosed herein as compared to with MC3. Tables 7e, 7f and 7g show hEPO expression data in CD-1 mice at a dose of 0.5 mpk.

| SMILES | particle size ranking amongst the compositions of Tables 1 and 1a [1] | encapsulation efficiency ranking amongst the compositions of Tables 1 and 1a [2] | pKa [3] | % Dose Remaining 6 hr [4] | % Dose Remaining 24 hr [4] |
| --- | --- | --- | --- | --- | --- |
| CCCCCCCCCCCCN(CCCCCCCCCCCC)CCN1CCN(CCN(CCCCCCCCCCCC)C(=O)CN(CCCCCCCCCCCC)CCCCCCCCCCCC)CC1 [Compound 1, 2-(Didodecylamino)-N-(2-(4-(2-(didodecylamino)ethyl)piperazin-1-yl)ethyl)-N-dodecylacetamide] | largest particles | lowest |  |  |  |
| CCCCC/C=C\CCCCCN(CCCCCCCCCCCC)CCN1CCN(CCN(CCCCCCCCCCCC)CCN(CCCCCCCCCCCC)CCCCCCCCCCCC)CC1 [Compound 24, (Z)—N^1-(2-(4-(2-(Dodec-6-en-1-yl(dodecyl)amino)ethyl)piperazin-1-yl)ethyl)-N^1,N^2,N^2-tridodecylethane-1,2-diamine] |  | lowest |  |  |  |
| CCCCC/C=C\C/C=C\CCCCCCCCN(CCCCCCCC/C=C\C/C=C\CCCCC)CCN(CCCCCCCC/C=C\C/C=C\CCCCC)CCN1CCN(CCN(CCCCCCCCCCCC)CCCCCCCCCCCC)CC1 [Compound 34, N^1-(2-(4-(2-(Didodecylamino)ethyl)piperazin-1-yl)ethyl)-N^1,N^2,N^2-tri((9Z,12Z)-octadeca-9,12-dien-1-yl)ethane-1,2-diamine] | smallest particles |  |  |  |  |
| CCCCCCCCCN(CCCCCCCCC)CCN(CCCCCCCCC)CCN1CCNCC1 [Compound 36, N^1,N^1,N^2-Trinonyl-N^2-(2-(piperazin-1-yl)ethyl)ethane-1,2-diamine] |  | highest |  |  |  |
| CCCCCCCCCCCCN(CCCCCCCCCCCC)CCN(CCCCCCCCCCCC)CCN1CCNCC1 [Compound 37, N^1,N^1,N^2-Tridodecyl-N^2-(2-(piperazin-1-yl)ethyl)ethane-1,2-diamine] |  | highest |  |  |  |
| CCCCCCCC/C=C\CCCCCCCCN(CCCCCCCC/C=C\CCCCCCCC)CCN(CCCCCCCC/C=C\CCCCCCCC)CCN1CCNCC1 [Compound 40, N^1,N^1,N^2-Tri((Z)-octadec-9-en-1-yl)-N^2-(2-(piperazin-1-yl)ethyl)ethane-1,2-diamine] |  | highest |  |  |  |
| CCCCC/C=C\C/C=C\CCCCCCCCN(CCCCCCCC/C=C\C/C=C\CCCCC)CCN(CCCCCCCC/C=C\C/C=C\CCCCC)CCN1CCNCC1 [Compound 41, N^1,N^1,N^2-Tri((9Z,12Z)-octadeca-9,12-dien-1-yl)-N^2-(2-(piperazin-1-yl)ethyl)ethane-1,2-diamine] |  | highest |  |  |  |
| CCCCCCCCCN(CCCCCCCCC)CCN(CCCCCCCCC)CCC1CCN(C(=O)CN(CCCCCCCCC)CCCCCCCCC)CC1 [Compound 50, 2-(Dinonylamino)-1-(4-(2-((2-(dinonylamino)ethyl)(nonyl)amino)ethyl)piperidin-1-yl)ethan-1-one] | smallest particles |  |  |  |  |
| CCCCCCCCCN(CCCCCCCCC)CCN(CCCCCCCCC)CC(=O)N1CCN(C(=O)CN(CCCCCCCCC)CCCCCCC(=O)OCC)CC1 [Compound 53, Ethyl 7-((2-(4-(N-(2-(dinonylamino)ethyl)-N-nonylglycyl)piperazin-1-yl)-2-oxoethyl)(nonyl)amino)heptanoate] |  |  | 6.91 |  |  |
| CCCCCCCCCN(CCCCCCCCC)CCN(CCCCCCCCC)CC(=O)N1CCN(C(=O)CN(CCCCCCCCC)CCCCCC(=O)OCCC)CC1 [Compound 54, Propyl 6-((2-(4-(N-(2-(dinonylamino)ethyl)-N-nonylglycyl)piperazin-1-yl)-2-oxoethyl)(nonyl)amino)hexanoate] |  |  | 6.88 |  |  |
| CCCCCCCCCN(CCCCCCCCC)CCN(CCCCCCCCC)CC(=O)N1CCN(C(=O)CN(CCCCCCCCC)CCCCC(=O)OCCCC)CC1 [Compound 55, Butyl 5-((2-(4-(N-(2-(dinonylamino)ethyl)-N-nonylglycyl)piperazin-1-yl)-2-oxoethyl)(nonyl)amino)pentanoate] |  |  | 6.96 |  |  |

Continued, values first:

| particle size ranking amongst the compositions of Tables 1 and 1a [1] | encapsulation efficiency ranking amongst the compositions of Tables 1 and 1a [2] | pKa [3] | % Dose Remaining 6 hr [4] | % Dose Remaining 24 hr [4] | SMILES |
| --- | --- | --- | --- | --- | --- |
|  |  | 6.73 |  |  | CCCCCCCCCN(CCCCCCCC(=O)OC)CCC1CCN(C(=O)CN(CCCCCCCCC)CCN(CCCCCCCCC)CCCCCCCCC)CC1 [Compound 57, Methyl 8-((2-(1-(N-(2-(dinonylamino)ethyl)-N-nonylglycyl)piperidin-4-yl)ethyl)(nonyl)amino)octanoate] |
|  |  | 6.7 |  |  | CCCCCCCCCN(CCCCCCC(=O)OCC)CCC1CCN(C(=O)CN(CCCCCCCCC)CCN(CCCCCCCCC)CCCCCCCCC)CC1 [Compound 58, Ethyl 7-((2-(1-(N-(2-(dinonylamino)ethyl)-N-nonylglycyl)piperidin-4-yl)ethyl)(nonyl)amino)heptanoate] |
|  |  | 6.68 |  |  | CCCCCCCCCN(CCCCCC(=O)OCCC)CCC1CCN(C(=O)CN(CCCCCCCCC)CCN(CCCCCCCCC)CCCCCCCCC)CC1 [Compound 59, Propyl 6-((2-(1-(N-(2-(dinonylamino)ethyl)-N-nonylglycyl)piperidin-4-yl)ethyl)(nonyl)amino)hexanoate] |
|  |  | 7.56 | 16.99% | 14.36% | CCCCCCCCCN(CCCC(=O)OCCCCC)CCC(=O)N1CCN(C(=O)CCN(CCCCCCCCC)CCN(CCCCCCCCC)CCCCCCCCC)CC1 [Compound 62, Pentyl 4-((3-(4-(3-((2-(dinonylamino)ethyl)(nonyl)amino)propanoyl)piperazin-1-yl)-3-oxopropyl)(nonyl)amino)butanoate] |
|  |  | 7.01 | 59.21% | 52.03% | CCCCCCCCCN(CCCCCCCCC)CCC1CCN(C(=O)CN(CCCCCCCCC)CCN(CCCCCCCCC)CCCCCCCCC)C1 (stereo not shown) [Compound 69, 2-((2-(Dinonylamino)ethyl)(nonyl)amino)-1-(3-(2-(dinonylamino)ethyl)pyrrolidin-1-yl)ethan-1-one] |
|  |  | 6.75 | 56.30% | 57.20% | CCCCCCCCCN(CCCCCCCCC)CCN(CCCCCCCCC)CC(=O)N1CCC(CN(CCCCCCCCC)CCCCCCCCC)C1 (stereo not shown) [Compound 70, 2-((2-(Dinonylamino)ethyl)(nonyl)amino)-1-(3-((dinonylamino)methyl)pyrrolidin-1-yl)ethan-1-one] |
|  |  | 7.19 |  |  | CCCCCCCCCN(CCCCCCCCC)CCN(CCCCCCCCC)CC(=O)N1CCN(C(=O)CN(CCCC(=O)OCCCCC)CCCC(=O)OCCCCC)CC1 [Compound 72, Dipentyl 4,4′-((2-(4-(N-(2-(dinonylamino)ethyl)-N-nonylglycyl)piperazin-1-yl)-2-oxoethyl)azanediyl)dibutyrate] |
|  |  | 6.65 | 68.53% | 64.75% | CCCCCCCCCN(CCCCCCCCC)CCC1CCCN(C(=O)CN(CCCCCCCCC)CCN(CCCCCCCCC)CCCCCCCCC)C1 (stereo not shown) [Compound 73, 2-((2-(Dinonylamino)ethyl)(nonyl)amino)-1-(3-(2-(dinonylamino)ethyl)piperidin-1-yl)ethan-1-one] |
|  |  | 6.78 | 23.78% | 25.25% | CCCCCCCCCN(CCCC(=O)OCCCCC)CCC1CCCN(C(=O)CN(CCCCCCCCC)CCN(CCCCCCCCC)CCCCCCCCC)C1 (stereo not shown) [Compound 80, Pentyl 4-((2-(1-(N-(2-(dinonylamino)ethyl)-N-nonylglycyl)piperidin-3-yl)ethyl)(nonyl)amino)butanoate] |
|  |  | 7.22 | 15.28% | 19.27% | CCCCCCCCCN(CCCC(=O)OCCCCC)CCC1CCN(C(=O)CN(CCCCCCCCC)CCN(CCCCCCCCC)CCCCCCCCC)C1 (stereo not shown) [Compound 81, Pentyl 4-((2-(1-(N-(2-(dinonylamino)ethyl)-N-nonylglycyl)pyrrolidin-3-yl)ethyl)(nonyl)amino)butanoate] |
|  |  | 7.05 | 37.85% | 38.66% | CCCCCCCCCN(CCCCCCCCC)CCN(CCCCCCCCC)CC(=O)N1CCC(CN(CCCCCCCCC)CCCC(=O)OCCCCC)C1 (stereo not shown) [Compound 82, Pentyl 4-(((1-(N-(2-(dinonylamino)ethyl)-N-nonylglycyl)pyrrolidin-3-yl)methyl)(nonyl)amino)butanoate] |
|  |  | 6.72 | 31.32% | 30.54% | CCCCCCCCCN(CCCC(=O)OCCCCC)CCC1CCN(C(=O)CN(CCCCCCCCC)CCN(CCCCCCCCC)CCCCCCCCC)CC1 [Compound 83, Pentyl 4-((2-(1-(N-(2-(dinonylamino)ethyl)-N-nonylglycyl)piperidin-4-yl)ethyl)(nonyl)amino)butanoate] |
|  |  | 7.01 | 21.23% | 20.86% | CCCCCCCCCN(CCCC(=O)OCCCCC)CCCC1CCN(C(=O)CCN(CCCCCCCCC)CCN(CCCCCCCCC)CCCCCCCCC)CC1 [Compound 84, Pentyl 4-((3-(1-(3-((2-(dinonylamino)ethyl)(nonyl)amino)propanoyl)piperidin-4-yl)propyl)(nonyl)amino)butanoate] |
